Measurements as given in patent publication US4382089A, “Antibacterial amide compounds, compositions thereof and methods of using them” (Warner-Lambert Company, priority 1982, dated 1983).

Assays:
Test in all cases: Antibacterial activity in vitro, Minimal Inhibitory Concentration
Format in all cases: cell-based
E. Coli Brig = system: E. Coli Brig
Excerpt: (§1) The compounds of the invention are new chemical compounds that are used as pharmacological agents and especially as broad spectrum antibacterial agents. They are active in vitro against strains of both gram-positive and gram-negative bacteria. The activity of the compounds is illustrated by the results shown in the table for certain of the preferred compounds.

Pseudo. Aeru 28 = system: Pseudo. Aeru 28
Excerpt: as §1

Staph Aureus UC-76 = system: Staph Aureus UC-76
Excerpt: as §1

E. Coli Vogel = system: E. Coli Vogel
Excerpt: as §1

Entero C. IMM-11 = system: Entero C. IMM-11
Excerpt: as §1

Pseudo. Aeru UI-18 = system: Pseudo. Aeru UI-18
Excerpt: as §1

Serr. Mar. IMM-16 = system: Serr. Mar. IMM-16
Excerpt: as §1

Klebs. Pneu. MGH-2 = system: Klebs. Pneu. MGH-2
Excerpt: as §1

Prot. Vulg. 1810 = system: Prot. Vulg. 1810
Excerpt: as §1

Pseudo. Aeru BRK = system: Pseudo. Aeru BRK
Excerpt: as §1

| Molecule | Minimal Inhibitory Concentration (E. Coli Brig) | Minimal Inhibitory Concentration (Pseudo. Aeru 28) | Minimal Inhibitory Concentration (Staph Aureus UC-76) | Minimal Inhibitory Concentration (E. Coli Vogel) | Minimal Inhibitory Concentration (Entero C. IMM-11) | Minimal Inhibitory Concentration (Pseudo. Aeru UI-18) | Minimal Inhibitory Concentration (Serr. Mar. IMM-16) | Minimal Inhibitory Concentration (Klebs. Pneu. MGH-2) | Minimal Inhibitory Concentration (Prot. Vulg. 1810) | Minimal Inhibitory Concentration (Pseudo. Aeru BRK) |
| --- | --- | --- | --- | --- | --- | --- | --- | --- | --- | --- |
| CC1(C)SC2C(NC(=O)C(NC(=O)c3c[nH]c4ccc(NC(=O)C5CCC(=O)N5)cc4c3=O)c3ccc(O)cc3)C(=O)N2C1C(=O)O (centres unmarked) [N-[1,4-Dihydro-4-oxo-6[[(5-oxo-2-pyrrolidinyl)carbonyl]-amino]-3-quinolinylcarbonyl]amoxicillin] | 6.3 µg/mL | 3.1 µg/mL | 1.6 µg/mL | 1.6 µg/mL | 3.1 µg/mL | 1.6 µg/mL | 6.3 µg/mL | 12.5 µg/mL | 1.6 µg/mL | 3.1 µg/mL |
| CC(=O)NC(C)C(=O)Nc1ccc2[nH]cc(C(=O)NC(C(=O)NC3C(=O)N4C3SC(C)(C)C4C(=O)O)c3ccc(O)cc3)c(=O)c2c1 (centres unmarked) [N-[6-[[2-(Acetylamino)-1-oxopropyl]amino]-1,4-dihydro-4-oxo-3-quinolinylcarbonyl]amoxicillin] | 3.1 µg/mL | 0.4 µg/mL | 1.6 µg/mL | 0.4 µg/mL | 3.1 µg/mL | 1.6 µg/mL | 3.1 µg/mL | 6.3 µg/mL | 0.8 µg/mL | 1.6 µg/mL |
| CC1(C)S[C@@H]2[C@H](NC(=O)[C@H](NC(=O)c3cc4cc(NC(=O)NCC(N)=O)ccc4[nH]c3=O)c3ccc(O)cc3)C(=O)N2[C@H]1C(=O)O [N-[3-[1,2-dihydro-2-oxo-6-(5-oxo-2-pyrrolidinyl)amino]-quinolinylcarbonyl]amoxicillin] | – | 1.6 µg/mL | 1.6 µg/mL | – | 3.1 µg/mL | – | – | – | – | 1.6 µg/mL |
| CC(=O)N1CC(O)CC1C(=O)Nc1ccc2c(=O)c(C(=O)NC(C(=O)NC3C(=O)N4C3SC(C)(C)C4C(=O)O)c3ccc(O)cc3)c[nH]c2c1 (centres unmarked) [N-[7-[[(1-Acetyl-4-hydroxy-2-pyrrolidinyl)carbonyl]-amino]-1,4-dihydro-4-oxo-3-quinolinecarbonyl]amoxicillin] | 12.5 µg/mL | 3.1 µg/mL | 1.6 µg/mL | 3.1 µg/mL | 6.3 µg/mL | 3.1 µg/mL | 6.3 µg/mL | 12.5 µg/mL | 0.8 µg/mL | 3.1 µg/mL |
| N-[1,4-Dihydro-4-oxo-7-[[(5-oxo-2-pyrrolidinyl)carbonyl]-amino]-3-quinolinylcarbonyl]amoxicillin | 3.1 µg/mL | 0.8 µg/mL | 0.8 µg/mL | 0.4 µg/mL | 3.1 µg/mL | 3.1 µg/mL | 1.6 µg/mL | 3.1 µg/mL | 0.8 µg/mL | 0.4 µg/mL |
| CC(=O)NC(C)C(=O)Nc1ccc2[nH]c(=O)c(C(=O)NC(C(=O)NC3C(=O)N4C3SC(C)(C)C4C(=O)O)c3ccc(O)cc3)cc2c1 (centres unmarked) [N-[6-[[(2-Acetylamino)-1-oxopropyl]amino]-1,2-dihydro-2-oxo-3-quinolinylcarbonyl]amoxicillin] | 6.3 µg/mL | 1.6 µg/mL | 1.6 µg/mL | 1.6 µg/mL | 6.3 µg/mL | 1.6 µg/mL | 12.5 µg/mL | 12.5 µg/mL | 3.1 µg/mL | 1.6 µg/mL |
| CC(=O)N1CC(O)CC1C(=O)Nc1ccc2[nH]c(=O)c(C(=O)NC(C(=O)NC3C(=O)N4C3SC(C)(C)C4C(=O)O)c3ccc(O)cc3)cc2c1 (centres unmarked) [N-[6-[[(1-Acetyl-4-hydroxy-2-pyrrolidinyl)carbonyl]-amino]-1,2-dihydro-2-oxo-3-quinolinylcarbonyl]amoxicillin] | 12.5 µg/mL | 1.6 µg/mL | 0.8 µg/mL | 6.3 µg/mL | 6.3 µg/mL | 1.6 µg/mL | 25 µg/mL | 25 µg/mL | 3.1 µg/mL | 3.1 µg/mL |
| CC(=O)NC(C)C(=O)Nc1ccc2c(=O)c(C(=O)NC(C(=O)NC3C(=O)N4C3SC(C)(C)C4C(=O)O)c3ccc(O)cc3)c[nH]c2c1 (centres unmarked) [N-[7-[[2-(Acetylamino)-1-oxopropyl]amino]-1,4-dihydro-4-oxo-3-quinolinylcarbonyl]amoxicillin] | 3.1 µg/mL | 1.6 µg/mL | 0.8 µg/mL | 0.2 µg/mL | 3.1 µg/mL | .6 µg/mL | 6.3 µg/mL | 6.3 µg/mL | 0.8 µg/mL | 1.6 µg/mL |
| CC1(C)SC2C(NC(=O)C(NC(=O)c3c[nH]c4c(NC(=O)C5CCC(=O)N5)cccc4c3=O)c3ccc(O)cc3)C(=O)N2C1C(=O)O (centres unmarked) [N-[1,4-Dihydro-4-oxo-8-[[(5-oxo-2-pyrrolidinyl)carbonyl]-amino]-3-quinolinylcarbonyl]amoxicillin] | 6.3 µg/mL | 0.8 µg/mL | 1.6 µg/mL | 3.1 µg/mL | 6.3 µg/mL | 3.1 µg/mL | 12.5 µg/mL | 12.5 µg/mL | 3.1 µg/mL | 1.6 µg/mL |
| N-[(-[[2-(Acetylamino)-1-oxopropl]amino]-1,4-dihydro-4-oxo-3-quinolinylcarbonyl]amoxicillin | 12.5 µg/mL | 0.8 µg/mL | 1.6 µg/mL | 3.1 µg/mL | 12.5 µg/mL | .1 µg/mL | 12.5 µg/mL | 12.5 µg/mL | 3.1 µg/mL | 3.1 µg/mL |
| CC(=O)N1CCCC1C(=O)Nc1ccc2[nH]cc(C(=O)NC(C(=O)NC3C(=O)N4C3SC(C)(C)C4C(=O)O)c3ccc(O)cc3)c(=O)c2c1 (centres unmarked) [N-[6-[[(1-Acetyl-2-pyrrolidinyl)carbonyl]amino]-1,4-dihydro-4-oxo-3-quinolinylcarbonyl]amoxicillin] | 6.3 µg/mL | 3.1 µg/mL | 3.1 µg/mL | 0.2 µg/mL | 6.3 µg/mL | 3.1 µg/mL | 6.3 µg/mL | 6.3 µg/mL | 0.8 µg/mL | 3.1 µg/mL |
